Laboratory results reported in the supplement of paper PMC10307832.

Compound: C/C(=N\NC(=S)N1CCC1)/C2=CC=CC=N2 + CS(=O)(=O)N1CCN(Cc2cc3nc(-c4cccc5[nH]ncc45)nc(N4CCOCC4)c3s2)CC1 [Pictilisib] (partner 1 µM)
Test: relative viability (nuclei count vs DMSO), 5 days (fraction); higher = more cells survive
How it was run: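 Nuclei were stained with Hoechst during a one-step fixation (final 0.05% Triton X-100, 1% formaldehyde, 1 ug/ml Hoechst) carried out 5 days after dosing, then counted on 4× images. The cells, lung cancer lines in 1536-well plates, had been dosed by pin tool the day after seeding with one drug alone or a fixed anchor-drug dose plus five library-drug doses (not always all listed) in √10 steps. Relative viability is the nuclei count in treated wells divided by that in vehicle wells, and each value is the median of duplicate plates.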

Cell Line	relative viability (first compound 0.05 µM)	relative viability (first compound 0.1581 µM)	relative viability (first compound 0.5 µM)	relative viability (first compound 1.581 µM)	relative viability (first compound 5 µM)
201T	0.438	0.494	0.444	0.389	0.344
A549	0.0548	0.0774	0.0703	0.0543	0.0578
A-427	0.109	0.142	0.129	0.116	0.125
ABC-1	0.305	0.334	0.24	0.222	0.269
BEN	0.164	0.162	0.156	0.186	0.176
CAL-12T	0.168	0.198	0.138	0.167	0.178
COR-L23	0.134	0.0963	0.103	0.0639	0.0663
COR-L 105	0.318	0.346	0.325	0.279	0.254
Calu-6	0.109	0.139	0.152	0.141	0.132
ChaGo-K-1	0.233	0.392	0.232	0.237	0.293
EBC-1	0.164	0.205	0.187	0.116	0.14
EKVX	0.113	0.127	0.115	0.107	0.124
EMC-BAC-2	0.0912	0.166	0.173	0.193	0.19
EPLC-272H	0.159	0.159	0.149	0.12	0.138
H3255	0.244	0.23	0.192	0.222	0.203
HARA	0.0923	0.0752	0.0784	0.0856	0.0671
HCC-15	0.0704	0.087	0.104	0.0822	0.0856
HCC-44	0.341	0.142	0.125	0.149	0.217
HCC-78	0.184	0.176	0.119	0.163	0.153

Cell Line	relative viability (first compound 0.05 µM)	relative viability (first compound 0.1581 µM)	relative viability (first compound 0.5 µM)	relative viability (first compound 1.581 µM)	relative viability (first compound 5 µM)
HCC-366	0.0297	0.0246	0.029	0.0344	0.0355
HCC-827	0.6	0.541	0.322	0.382	0.388
HOP-62	0.0606	0.0715	0.0848	0.0699	0.0611
IA-LM	0.0879	0.0508	0.0707	0.0558	0.0544
LC-2-ad	0.141	0.106	0.103	0.103	0.117
LCLC-97TM1	0.101	0.141	0.0914	0.117	0.101
LCLC-103H	0.269	0.254	0.266	0.234	0.265
LK-2	0.146	0.263	0.268	0.198	0.238
LOU-NH91	0.367	0.428	0.439	0.374	0.356
LU99A	0.12	0.106	0.0914	0.146	0.122
LXF-289	0.192	0.151	0.16	0.103	0.123
NCI-H23	0.132	0.16	0.159	0.132	0.117
NCI-H322M	0.23	0.38	0.275	0.263	0.287
NCI-H358	0.178	0.214	0.19	0.142	0.163
NCI-H441	0.127	0.101	0.115	0.108	0.128
NCI-H460	0.108	0.12	0.0972	0.13	0.0516
NCI-H520	0.176	0.186	0.18	0.16	0.208
NCI-H596	0.251	0.257	0.223	0.212	0.277
NCI-H647	0.0857	0.0882	0.104	0.0844	0.15
